Entries after “also recorded” stand apart in the source; their conditions may differ.
What was measured:
[1] = system: HeLa S-3 cells; assay: cells; type: cell-based, human; conditions: for viability at 10 µg/mL: Homo sapiens, HeLa S3, 24 hours
Description: Experiments were carried out with HeLa S-3 cells grown in Eagle's minimal essential medium supplemented with 10% fetal calf serum. […] No antifungal agent was used.
Cell survival was assayed by colony-forming ability of plated single cells to obtain quantitative dose-survival curves. Details of cloning experiments including colony court have been described elsewhere (See, e.g., Kim et al. supra).
Plated a synchronous monolayer cells were heated to within 0.05° C. of the desired temperature by totally immersing plastic culture flasks in a water bath. Water bath temperatures were verified by a National Bureau of Standards calibrated thermometer.
The pH of the culture medium was adjusted by varying the CO2 content of the gas phase within the flasks. […] The pH of the culture medium was monitored throughout the treatment procedures by sealing a combination electrode in a treatment vessel and monitored with a temperature-compensated digital pH meter.
(§1) The "glucose-deprived" medium was prepared by adding 10% dialyzed fetal calf serum to the culture medium without glucose. The dialyzed fetal calf serum contained less than 1 mg glucose per 100 ml so that the final concentration of glucose in the "glucose-deprived" medium was less than 0.001 mg per ml.

[2] = system: cells; conditions: high doses; cited from earlier work
[3] = system: HeLa cells; assay: Effect of gossypol on cell multiplication at 37° C.; type: cell-based, human
Description: (§2) Experiments were carried out with HeLa S-3 cells grown in Eagle's minimal essential medium supplemented with 10% fetal calf serum.
(§3) The pH of the culture medium was adjusted by varying the CO2 content of the gas phase within the flasks. The buffering system of Eagle's minimal essential medium consisted of 26 mM NaHCO3 at 5% CO2 for neutral pH of 7.4. To obtain a pH of 6.7, for example, the flasks were flushed with the gas mixtures containing 26% CO2. The pH of the culture medium was monitored throughout the treatment procedures by sealing a combination electrode in a treatment vessel and monitored with temperature-compensated digital pH meter.
(§4) Gossypol was dissolved in DMSO immediately prior to experiments. DMSO produced no enhancement of hyperthermic cytotoxicity with the range studied.
Preliminary experiments were carried out to determine the effect of gossypol on cell division. Exponentially growing HeLa cells were exposed to the drug for 72 hours at 37° C. Control cells grew exponentially with a doubling time of approximately 19 hours.

[4] = system: HeLa S-3 cells; assay: Effect of gossypol on cell survival at elevated temperature, pH and glucose conditions; type: cell-based, human; conditions: for viability at 10 µg/mL: Homo sapiens, HeLa S3
Description: as §2
Plated monolayer cells were heated within 0.05° of the desired temperature by totally immersing plastic culture flasks in a heated water bath. Water bath temperatures were verified by a National Bureau of Standards thermometer.
as §3, §1, §4
For example, at 10 μg/m. and 2 hours exposure at 42° C., the cells survival is reduced to 1% under acidic condition. Heat treatment alone reduces the cell survival to only 50% of the control.
Since gossypol has been reported to interfere with cellular energy metabolism, experiments were performed to determine the influence of glucose on the cytotoxic effect of gossypol. […] The survival of glucose-fed cells exposed to the same treatment was approximately 10% while that of glucose-deprived cells can further enhance the cytotoxic effect of gossypol at elevated temperature.

[5] = system: spermatogenesis; conditions: in vivo; cited from earlier work
[6] = system: testicular tissues; conditions: cited from earlier work
[7] = system: cultured tumor cell lines; conditions: cited from earlier work
[8] = system: glycolytic and mitochondrial bound enzymes; conditions: cited from earlier work
[9] = system: MCA mammary carcinoma; assay: Radiation enhancement in the transplanted MCA mammary carcinoma, with or without mild hyperthermia; type: in vivo, murine
Description: Nicotinamide was administered intraperitoneal one (1) […] before irradiation. Localized mild hyperthermia (41° C.) was applied for one (1) hour immediately prior to irradiation.

[10] = system: Meth-A fibrosarcoma; assay: Radiation enhancement by nicotinamide in Meth-A fibrosarcoma; type: in vivo, murine; conditions: radiosensitive tumor
Description: The mechanism by which nicotinamide produces radiation enhancement is not established.

[11] = system: cell culture models; assay: Radiation enhancement by nicotinamide in cell culture; type: cell-based
Description: (22) See FIGS. 9 and 10. As noted previously, the following DMF's were obtained for the respective experimental conditions: Nicotinamide+Radiation Therapy=1.36, Hyperthermia+Radiation Therapy=1.36, Nicotinamide+Hyperthermia+Radiation Therapy=1.64.

[12] = system: C3H mammary adenocarcinoma; conditions: transplanted C3H mammary adenocarcinoma; cited from earlier work
[13] = system: EMT-6, Lewis Lung, and RIF-1 tumors; conditions: injection prior to radiation treatment; cited from earlier work
[14] = system: poly-ADP ribose synthetase; conditions: cited from earlier work
[15] = in vivo; cited from earlier work
[16] = Tolerability of nicotinamide in mice; conditions: optimal dose of 0.5 gm/kg (1.5 gm/m^2)
[17] = acidic pH, glucose-deprived cells
[18] = human cancer cells (HeLa), heated

## COC(=O)c1ccccc1-c1c2ccc(=N)cc-2oc2cc(N)ccc12 [rhodamine 123]
[1]; 10 μg/ml, 4 hours, 37° C., glucose-fed or glucose-deprived
  cell surviving fraction, initial 4 hour exposure: no appreciable reduction in the cell surviving fraction
[1]; 37° C., 4 hour
  cell survival at 37° C., exposure limit: did not produce any detectable reduction in cell survival
[1]; 40, 41 and 42° C., up to 4 hours
  effect on hyperthermic cytotoxicity, glucose-deprived vs glucose-fed cells: selectively increased the cytotoxic effects of hyperthermia in glucose-deprived cells relative to glucose-fed cells
[1]; 10 μg/ml, 37° C., glucose-deprived, read-out: surviving fraction in the absence of glucose
  viability at 10 µg/mL: < 1%
[1]; 10 μg/ml, 37° C., glucose-fed, read-out: surviving fraction in the presence of glucose
  viability at 10 µg/mL: 80%
[1]; [17]
  cytotoxicity at acidic pH relative to pH 7.4: less than that observed at pH 7.4
  influence of acidic pH on cytotoxicity of heat: did not substantially enhance the cytotoxicity of heat in glucose-deprived cells
[1]; glucose-deprived cells, two hours
  dependence of potentiation of heat effects: dependent on the elevated temperature and drug concentration in glucose-deprived cells
[1]; glucose-fed, different temperatures for two hours
  hyperthermia enhancement in glucose-fed cells: No hyperthermia enhancement
[1]; [18]
  hyperthermic sensitization: effective hyperthermic sensitizers of human cancer cells
[2]
  effects of continuous exposure: inhibit oxidative phosphorylation, to arrest cells in G1 phase, and to induce loss of reproductive capacity

## Cc1cc2c(C(C)C)c(O)c(O)c(C=O)c2c(O)c1-c1c(C)cc2c(C(C)C)c(O)c(O)c(C=O)c2c1O [gossypol]
[3]; 1.25 μg/ml
  growth rate versus control: the same as that of the control cells
[3]; 2.5 μg/ml, incubation times greater than 24 hours
  doubling time: a lengthening of doubling time was observed
[3]; 2.5 μg/ml, initial 24 hours
  growth curve versus control: not significantly different from the control
[3]; 5, 10 and 20 μg/ml, 72 hours
  cell growth (multiplication): grew exponentially for the first 24 hour period and then remained stationary
[4]; 10 μg/ml, glucose-deprived, 37° C., pH 7.4
  cytotoxicity, glucose deprivation at 37° C.: no apparent cytotoxicity
[4]; 10 μg/ml, glucose-deprived, 42° C. for 4 hours, pH 7.4
  cell killing, glucose deprivation at 42° C.: a substantial increase in cell killing
[4]; 5 and 10 μg/ml, up to 4 hours, 37° C., acidic or neutral conditions
  drug toxicity (cell survival): no appreciable drug toxicity
[4]; 10 μg/ml, 2 hours exposure at 42° C., acidic condition (heat alone: 50% of control), read-out: cell survival
  viability at 10 µg/mL: 1%
[4]; 10 μg/ml, glucose-fed, 42° C. for 4 hours, pH 7.4, read-out: survival of glucose-fed cells
  viability at 10 µg/mL: ~10%
[4]; elevated temperature, acidic vs neutral
  pH dependence of cytotoxic effect of hyperthermia on drug-treated cells: most pronounced under acidic conditions
[4]; [18]
  hyperthermic sensitization: effective hyperthermic sensitizers of human cancer cells
[5]
  inhibition of spermatogenesis: inhibitor of spermatogenesis
[6]; in vivo
  toxicity to testicular tissues: selectively toxic to testicular tissues
[6]; non-testicular tissues
  effect on other tissues: no observable effect on other tissues
[7]
  anti-tumor effects: anti-tumor effects against cultured tumor cell lines
[8]
  enzyme inhibition: inhibition of glycolytic and mitochondrial bound enzymes

## O=C(O)c1cccnc1 [nicotinic acid]
[9]; even at the LD10 dosage
  radiation enhancement, MCA mammary tumor, nicotinic acid: did not produce radiation enhancement

## NC(=O)c1cccnc1 [nicotinamide]
[9]; 0.5 gm/kg 1 hour prior to radiation, 41° C. for one hour, b79 statement
  radiation dose modification factor, nicotinamide + hyperthermia + radiation: 1.77
[9]; 125 to 500 mg/kg i.p. one hour prior to irradiation, 1 hour heating at 41° C., b86 statement
  DMF, Nicotinamide+Hyperthermia+Radiation Therapy: 1.64
[9]; 125 to 500 mg/kg i.p. one hour prior to irradiation, b86 statement
  DMF, Nicotinamide+Radiation Therapy: 1.36
[9]; 125 to 500 mg/kg i.p., one hour prior to irradiation, 41° C. 1 hour
  enhancement of effects of radiation and radiation plus hyperthermia: clear enhancement of the effects of radiation and radiation plus hyperthermia
[9]; without hyperthermia, b79 statement
  DMF, nicotinamide plus radiation (without hyperthermia): 1.35
[10]
  radiation enhancement in oxic Meth-A fibrosarcoma: inactive against the oxic Meth-A fibrosarcoma model; also recorded: no radio-enhancing effect
[11]; in our hands
  activity in cell culture models: not active in cell culture models
[11]; nicotinamide concentrations <10 mM
  radiation enhancement in cell culture: No radiation enhancement
[12]
  radiation enhancing effects: radiation enhancing effects
[13]
  optimal timing of drug for radiation enhancement: 1 to 3 h
[14]
  inhibition of poly-ADP ribose synthetase: inhibitor of poly-ADP ribose synthetase
[15]
  safety in humans: safe and associated with only a low incidence of side effects
[16]
  toxicity in mice: non-toxic in mice

Reference: US5260327A, “Methods for inhibiting the proliferation of brain and hepatic metastases by using lonidamine” (priority 1992, dated 1993)
